{"source": "patent US11678683B2", "about": "“Processed edible product comprising a polyelectrolyte complex and an antimicrobial compound” (Ceradis B.V., priority 2013, dated 2023)", "origin": "cited, not measured here", "key": {"[1]": {"settings": "neutral aqueous systems"}}, "data": [{"smiles": "C[C@@H]1C/C=C/C=C/C=C/C=C/[C@H](O[C@@H]2O[C@H](C)[C@@H](O)[C@H](N)[C@@H]2O)C[C@@H]2O[C@](O)(C[C@@H](O)C[C@H]3O[C@@H]3/C=C/C(=O)O1)C[C@H](O)[C@H]2C(=O)O", "note": "[Natamycin, natamycin]", "values": [{"measurement": "MIC (Minimal Inhibitory Concentration)", "setting": "most fungi", "result": "less than 10 ppm"}, {"measurement": "Solubility", "setting": "[1]", "result": "30-40 ppm"}]}]}
